Measured values: patent publication US6685915B2, “Extended-linear polymeric contrast agents, and synthesizing methods, for medical imaging” (General Electric Company, priority 1999, dated 2004)

Assay: blood circulation time
Format: in vivo
Text: Furthermore, the blood circulation times can be adjusted by varying the polymer length.

O=C([O-])CN(CCN(CC(=O)[O-])CC(=O)O)CCN(CC(=O)[O-])CC(=O)O.[Gd+3] [Gd-DTPA, gadolinuim- diethylentriaminepentaaceticacid]
circulation time constant: 15 min
